Results from ChEMBL document CHEMBL4229572, “VU6007477, a Novel M1 PAM Based on a Pyrrolo[2,3-b]pyridine Carboxamide Core Devoid of Cholinergic Adverse Events” (ACS Med Chem Lett, 2018).
Substitutions are numbered along the chain they refer to.

What was measured:
[1] = Ratio of unbound brain to plasma concentration in C57BL/6J mouse at 100 mg/kg, ip after 1 hr by LC-MS/MS analysis; format: ADME, organism-based; settings: brain and plasma, read-out: K(p,uu,brain)
[2] = target: Muscarinic acetylcholine receptor M3 (Homo sapiens, UniProt P20309); test: Positive allosteric modulation of human M3 receptor expressed in CHO cells assessed as increase in acetylcholine-induced calcium mobilization pretreated for 2.5 mins followed by acetylcholine addition and measured after 1 min by Fluo-4-AM dye based assay; format: functional, cell-based
[3] = Ratio of unbound brain to plasma concentration in cannulated Sprague-Dawley rat at 0.2 mg/kg, iv administered via jugular vein as cassette dose measured after 0.25 hrs by LC-MS/MS analysis; format: ADME, organism-based; settings: Sprague-Dawley, brain and plasma, read-out: K(p,uu,brain)
[4] = Protein binding in rat plasma assessed as unbound fraction at 5 uL measured after 4 hrs by LC-MS/MS based equilibrium dialysis method; format: ADME, cell-free
[5] = target: T1, Muscarinic acetylcholine receptor M1 (Homo sapiens, UniProt P11229); test: (§1) Positive allosteric modulation of human M1 receptor expressed in CHO cells assessed as increase in acetylcholine-induced calcium mobilization pretreated for 2.5 mins followed by acetylcholine addition and measured after 1 min by Fluo-4-AM dye based assay; format: functional, cell-based
T1 sequence (P11229 whole entry): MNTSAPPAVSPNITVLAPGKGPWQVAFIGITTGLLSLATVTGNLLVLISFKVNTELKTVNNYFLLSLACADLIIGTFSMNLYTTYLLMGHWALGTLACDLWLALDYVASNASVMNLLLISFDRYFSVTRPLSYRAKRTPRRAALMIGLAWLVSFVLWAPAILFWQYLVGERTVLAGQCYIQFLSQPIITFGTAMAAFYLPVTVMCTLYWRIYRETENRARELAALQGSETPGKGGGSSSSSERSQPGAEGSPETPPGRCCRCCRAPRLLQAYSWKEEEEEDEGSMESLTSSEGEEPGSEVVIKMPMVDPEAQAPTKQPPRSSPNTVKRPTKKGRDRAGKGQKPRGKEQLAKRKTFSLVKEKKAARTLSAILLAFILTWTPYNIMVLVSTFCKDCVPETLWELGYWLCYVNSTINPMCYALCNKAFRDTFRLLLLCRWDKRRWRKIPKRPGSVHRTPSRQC

[6] = target: T2, Muscarinic acetylcholine receptor M1 (Homo sapiens) (UniProt P11229); test: as §1; format: functional, cell-based
T2 sequence (whole entry): T1 sequence (P11229 whole entry)

[7] = Drug level in C57BL/6J mouse brain at 100 mg/kg, ip measured after 1 hr; format: ADME, organism-based; settings: read-out: Drug uptake
P-gp = test: Substrate activity at P-gp (unknown origin) assessed as apparent permeability; format: ADME; settings: human, not told
[8] = Total brain to plasma partition coefficient, Kp in cannulated Sprague-Dawley rat at 0.2 mg/kg, iv administered via jugular vein as cassette dose measured after 0.25 hrs by LC-MS/MS analysis; format: ADME, organism-based; settings: Sprague-Dawley, brain and plasma
[9] = target: T3, Muscarinic acetylcholine receptor M1 (Rattus norvegicus, UniProt P08482); test: (§2) Positive allosteric modulation of rat M1 receptor expressed in CHO cells assessed as increase in acetylcholine-induced calcium mobilization pretreated for 2.5 mins followed by acetylcholine addition and measured after 1 min by Fluo-4-AM dye based assay; format: functional, cell-based; settings: read-out: EC50
T3 sequence (P08482 whole entry): T1 sequence (P11229 whole entry) with A5V, T254S, P309S, R320K, A337G, I413V

[10] = target: T4, Muscarinic acetylcholine receptor M1 (Rattus norvegicus) (UniProt P08482); test: as §2; format: functional, cell-based
T4 sequence (whole entry): T1 sequence (P11229 whole entry) with A5V, T254S, P309S, R320K, A337G, I413V

[11] = target: T3, Muscarinic acetylcholine receptor M1; test: Agonist activity at rat M1 receptor expressed in CHO cells assessed as increase in calcium mobilization measured after 2.5 mins by Fluo-4-AM dye based assay; format: functional, cell-based
[12] = Total brain to plasma partition coefficient, Kp in C57BL/6J mouse at 100 mg/kg, ip after 1 hr by LC-MS/MS analysis; format: ADME, organism-based; settings: brain and plasma
[13] = target: T5, Muscarinic acetylcholine receptor M5 (Homo sapiens, UniProt P08912); test: Positive allosteric modulation of human M5 receptor expressed in CHO cells assessed as increase in acetylcholine-induced calcium mobilization pretreated for 2.5 mins followed by acetylcholine addition and measured after 1 min by Fluo-4-AM dye based assay; format: functional, cell-based
T5 sequence (P08912 whole entry): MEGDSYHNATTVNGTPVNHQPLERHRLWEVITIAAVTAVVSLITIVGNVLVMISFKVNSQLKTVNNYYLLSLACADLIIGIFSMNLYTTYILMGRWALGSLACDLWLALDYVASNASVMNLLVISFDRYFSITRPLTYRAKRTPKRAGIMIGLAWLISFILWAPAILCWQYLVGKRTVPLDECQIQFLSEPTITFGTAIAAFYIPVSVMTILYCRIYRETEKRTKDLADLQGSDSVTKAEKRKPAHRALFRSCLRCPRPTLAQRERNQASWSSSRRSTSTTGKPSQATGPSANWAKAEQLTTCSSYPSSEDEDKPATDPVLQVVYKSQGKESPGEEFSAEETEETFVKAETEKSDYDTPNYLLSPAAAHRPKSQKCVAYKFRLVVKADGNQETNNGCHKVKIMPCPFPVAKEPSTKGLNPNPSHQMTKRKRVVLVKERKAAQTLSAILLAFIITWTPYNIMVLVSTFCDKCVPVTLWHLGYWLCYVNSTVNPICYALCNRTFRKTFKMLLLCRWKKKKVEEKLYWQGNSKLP

[14] = Protein binding in human plasma assessed as unbound fraction at 5 uL measured after 4 hrs by LC-MS/MS based equilibrium dialysis method; format: ADME, cell-free

Muscarinic acetylcholine receptor M3, sequence (P20309 whole entry): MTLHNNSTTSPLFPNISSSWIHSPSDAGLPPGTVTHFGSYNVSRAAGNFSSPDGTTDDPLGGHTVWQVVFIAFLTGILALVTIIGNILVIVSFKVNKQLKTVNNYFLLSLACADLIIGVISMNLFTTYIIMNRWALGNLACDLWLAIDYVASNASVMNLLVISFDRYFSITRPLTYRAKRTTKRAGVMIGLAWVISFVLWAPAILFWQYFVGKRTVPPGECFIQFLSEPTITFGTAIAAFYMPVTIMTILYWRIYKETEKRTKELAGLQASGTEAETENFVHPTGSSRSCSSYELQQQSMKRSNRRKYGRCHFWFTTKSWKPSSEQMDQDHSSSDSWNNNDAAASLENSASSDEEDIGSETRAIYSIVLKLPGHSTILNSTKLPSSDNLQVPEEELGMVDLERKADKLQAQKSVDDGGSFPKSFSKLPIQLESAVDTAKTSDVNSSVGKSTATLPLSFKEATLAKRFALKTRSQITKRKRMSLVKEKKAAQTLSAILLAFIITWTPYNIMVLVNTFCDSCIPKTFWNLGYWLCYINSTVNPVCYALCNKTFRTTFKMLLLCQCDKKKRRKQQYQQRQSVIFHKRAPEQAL

Cn1cc(-c2ccc(Cc3cc(C(=O)NC4CCOCC4)nc4c3ccn4C)cn2)cn1
Kp uu at 1 h [1]: 0.18 | EC50 [2]: > 30 µM | Kp uu at 0.25 h [3]: 0.32 | fraction unbound at 4 h, 5 uL [4]: 0.06 | EC50 [5]: 0.32 µM | %max [6]: 84% | concentration at 1 h [7]: 7 µM | Papp (P-gp): 12 ×10⁻⁶ cm/s | Kp at 0.25 h [8]: 0.28 | EC50 [9]: 0.23 µM | %max [10]: 93% | pKb [10]: 4.82 | EC50 ([11]; cho, read-out: EC50): > 10 µM | EC50 ([11]; read-out: pEC50 (converted)): > 10 µM | Kp at 1 h [12]: 0.16 | EC50 [13]: > 30 µM | fraction unbound at 4 h, 5 uL [14]: 0.04
